System: sensitive, MDR and XDR clinical Mtb strains
Assay type: cell-based, Mycobacterium tuberculosis
Conditions: panel of MDR and XDR drug resistant clinical Mtb strains

## Cc1ccn2c(C(=O)NCc3ccc(Oc4ccc(F)cc4)cc3)c(C)nc2c1 [Compound 18]
  potency surpassing that of PA-824: ~10 fold
